# Values joined by “and” are separate entries in the source; they are usually repeats but may differ in a detail not shown here. Identical values can stand only once. Numbers after ± are expanded uncertainties.
# Conditions: Buoyancy - hydrostatic balance with magnetic suspension - one sinker
smiles,measurement,setting,value
CC [ethane],mass density,"225.41 K, 310.68 kPa, Gas",5.2843 ± 0.012 kg/m3
same,mass density,"225.41 K, 1642.2 kPa, Liquid",489.85 ± 0.11 kg/m3
same,mass density,"225.42 K, 212.66 kPa, Gas",3.5454 ± 0.011 kg/m3
same,mass density,"225.42 K, 1086.8 kPa, Liquid",488.834 ± 0.11 kg/m3
same,mass density,"225.42 K, 2133.2 kPa, Liquid",490.717 ± 0.11 kg/m3
same,mass density,"225.43 K, 709.57 kPa, Liquid",488.151 ± 0.11 kg/m3
same,mass density,"225.44 K, 403.34 kPa, Gas",6.9981 ± 0.012 kg/m3
same,mass density,"225.47 K, 499.44 kPa, Gas",8.8558 ± 0.013 kg/m3
same,mass density,"230.34 K, 306.85 kPa, Gas",5.0853 ± 0.011 kg/m3
same,mass density,"230.34 K, 1666.7 kPa, Liquid",482.366 ± 0.11 kg/m3
same,mass density,"230.34 K, 2111.2 kPa, Liquid",483.236 ± 0.11 kg/m3
same,mass density,"230.35 K, 197.35 kPa, Gas",3.2054 ± 0.011 kg/m3
same,mass density,"230.35 K, 391.01 kPa, Gas",6.5852 ± 0.012 kg/m3
same,mass density,"230.35 K, 493.22 kPa, Gas",8.4852 ± 0.012 kg/m3
same,mass density,"230.35 K, 2447.9 kPa, Liquid",483.853 ± 0.11 kg/m3
same,mass density,"230.36 K, 615.49 kPa, Gas",10.8842 ± 0.012 kg/m3
same,mass density,"230.36 K, 1671.6 kPa, Liquid",482.356 ± 0.11 kg/m3
same,mass density,"230.37 K, 1281 kPa, Liquid",481.577 ± 0.11 kg/m3
same,mass density,"230.38 K, 886.51 kPa, Liquid",480.769 ± 0.11 kg/m3
same,mass density,"235 K, 391.54 kPa, Gas",6.4356 ± 0.011 kg/m3
same,mass density,"235.01 K, 305.16 kPa, Gas",4.9382 ± 0.011 kg/m3
same,mass density,"235.01 K, 499.46 kPa, Gas",8.3818 ± 0.012 kg/m3
same,mass density,"235.01 K, 592.34 kPa, Gas",10.1286 ± 0.013 kg/m3
same,mass density,"235.02 K, 197.5 kPa, Gas",3.137 ± 0.011 kg/m3
same,mass density,"235.03 K, 694.56 kPa, Gas",12.1431 ± 0.013 kg/m3
same,mass density,"239.99 K, 717.05 kPa, Gas",12.2167 ± 0.013 kg/m3
same,mass density,"240.01 K, 954.18 kPa, Gas",17.1448 ± 0.014 kg/m3
same,mass density,"240.04 K, 105.82 kPa, Gas",1.619 ± 0.01 kg/m3
same,mass density,"240.04 K, 323.6 kPa, Gas",5.1239 ± 0.011 kg/m3
same,mass density,"240.04 K, 502.79 kPa, Gas",8.2138 ± 0.012 kg/m3
same,mass density,"240.04 K, 1755.7 kPa, Liquid",466.891 ± 0.11 kg/m3
same,mass density,"240.05 K, 2196.3 kPa, Liquid",467.899 ± 0.11 kg/m3
same,mass density,"240.06 K, 1092.2 kPa, Liquid",465.243 ± 0.11 kg/m3
same,mass density,"240.06 K, 1457.2 kPa, Liquid",466.142 ± 0.11 kg/m3
same,mass density,"240.08 K, 2591.9 kPa, Liquid",468.767 ± 0.11 kg/m3
same,mass density,"240.09 K, 2936.2 kPa, Liquid",469.524 ± 0.11 kg/m3
same,mass density,"244.91 K, 880.77 kPa, Gas",15.0548 ± 0.013 kg/m3
same,mass density,"244.91 K, 1111.6 kPa, Gas",20.0182 ± 0.014 kg/m3
same,mass density,"244.92 K, 628.26 kPa, Gas",10.2258 ± 0.012 kg/m3
same,mass density,"244.92 K, 877.28 kPa, Gas",14.9812 ± 0.013 kg/m3
same,mass density,"244.92 K, 1123.2 kPa, Liquid",456.739 ± 0.11 kg/m3
same,mass density,"244.92 K, 1225 kPa, Liquid",457.081 ± 0.11 kg/m3
same,mass density,"244.92 K, 1442.7 kPa, Liquid",457.624 ± 0.11 kg/m3
same,mass density,"244.93 K, 138.73 kPa, Gas",2.0893 ± 0.01 kg/m3
same,mass density,"244.93 K, 350.79 kPa, Gas",5.4481 ± 0.011 kg/m3
same,mass density,"244.93 K, 350.8 kPa, Gas",5.4496 ± 0.011 kg/m3
same,mass density,"244.93 K, 904.97 kPa, Gas",15.5558 ± 0.013 kg/m3
same,mass density,"244.93 K, 1659 kPa, Liquid",458.187 ± 0.11 kg/m3
same,mass density,"244.93 K, 1659.6 kPa, Liquid",458.185 ± 0.11 kg/m3
same,mass density,"244.95 K, 1111.4 kPa, Gas",20.0202 ± 0.014 kg/m3
same,mass density,"249.79 K, 863.82 kPa, Gas",14.2661 ± 0.013 kg/m3
same,mass density,"249.8 K, 863.8 kPa, Gas",14.2677 ± 0.013 kg/m3
same,mass density,"249.8 K, 1281.6 kPa, Gas",23.1579 ± 0.017 kg/m3
same,mass density,"249.81 K, 360.58 kPa, Gas",5.4802 ± 0.011 kg/m3
same,mass density,"249.81 K, 633.6 kPa, Gas",10.0488 ± 0.012 kg/m3
same,mass density,"249.81 K, 1067.5 kPa, Gas",18.3574 ± 0.015 kg/m3 and 18.3577 ± 0.015 kg/m3
same,mass density,"249.81 K, 1281.3 kPa, Gas",23.1411 ± 0.017 kg/m3
same,mass density,"249.82 K, 147.6 kPa, Gas",2.1773 ± 0.0099 kg/m3
same,mass density,"249.84 K, 2352.9 kPa, Liquid",451.272 ± 0.1 kg/m3
same,mass density,"249.85 K, 2081.5 kPa, Liquid",450.462 ± 0.1 kg/m3
same,mass density,"249.86 K, 2510.3 kPa, Liquid",451.694 ± 0.1 kg/m3
same,mass density,"249.86 K, 2510.4 kPa, Liquid",451.694 ± 0.1 kg/m3
same,mass density,"249.87 K, 2510.9 kPa, Liquid",451.681 ± 0.1 kg/m3
same,mass density,"249.9 K, 1805.5 kPa, Liquid",449.546 ± 0.1 kg/m3
same,mass density,"249.93 K, 1301 kPa, Liquid",447.948 ± 0.1 kg/m3
same,mass density,"249.93 K, 1354.2 kPa, Liquid",448.104 ± 0.1 kg/m3
same,mass density,"249.93 K, 1591.6 kPa, Liquid",448.847 ± 0.1 kg/m3
same,mass density,"254.69 K, 1692.1 kPa, Liquid",439.901 ± 0.1 kg/m3
same,mass density,"254.69 K, 2265.9 kPa, Liquid",441.863 ± 0.1 kg/m3
same,mass density,"254.7 K, 2492.4 kPa, Liquid",442.576 ± 0.1 kg/m3
same,mass density,"254.7 K, 2493.3 kPa, Liquid",442.588 ± 0.1 kg/m3
same,mass density,"254.72 K, 114.93 kPa, Gas",1.6547 ± 0.0096 kg/m3
same,mass density,"254.72 K, 2013.5 kPa, Liquid",440.937 ± 0.1 kg/m3
same,mass density,"254.73 K, 225.89 kPa, Gas",3.2988 ± 0.0098 kg/m3
same,mass density,"254.74 K, 1474.7 kPa, Gas",26.843 ± 0.016 kg/m3
same,mass density,"254.75 K, 3109.9 kPa, Liquid",444.464 ± 0.1 kg/m3
same,mass density,"254.76 K, 634.94 kPa, Gas",9.817 ± 0.011 kg/m3
same,mass density,"254.76 K, 825.19 kPa, Gas",13.1528 ± 0.012 kg/m3
same,mass density,"254.76 K, 1040.1 kPa, Gas",17.2189 ± 0.013 kg/m3
same,mass density,"254.76 K, 1280.4 kPa, Gas",22.2529 ± 0.015 kg/m3
same,mass density,"254.76 K, 1280.5 kPa, Gas",22.2533 ± 0.015 kg/m3
same,mass density,"254.76 K, 2860.9 kPa, Liquid",443.666 ± 0.1 kg/m3
same,mass density,"254.77 K, 423.98 kPa, Gas",6.354 ± 0.01 kg/m3
same,mass density,"254.78 K, 3457.8 kPa, Liquid",445.504 ± 0.1 kg/m3
same,mass density,"254.81 K, 2648.7 kPa, Liquid",442.883 ± 0.1 kg/m3
same,mass density,"259.62 K, 933.39 kPa, Gas",14.7341 ± 0.012 kg/m3
same,mass density,"259.62 K, 1174.9 kPa, Gas",19.3302 ± 0.013 kg/m3
same,mass density,"259.62 K, 1700.9 kPa, Liquid",429.637 ± 0.1 kg/m3
same,mass density,"259.62 K, 2698.9 kPa, Liquid",433.539 ± 0.1 kg/m3
same,mass density,"259.63 K, 152.52 kPa, Gas",2.1615 ± 0.0095 kg/m3
same,mass density,"259.63 K, 358.5 kPa, Gas",5.211 ± 0.01 kg/m3
same,mass density,"259.63 K, 550.88 kPa, Gas",8.2159 ± 0.011 kg/m3
same,mass density,"259.63 K, 726.92 kPa, Gas",11.1161 ± 0.011 kg/m3
same,mass density,"259.63 K, 1351.5 kPa, Gas",23.0156 ± 0.015 kg/m3
same,mass density,"259.63 K, 1351.6 kPa, Gas",23.0046 ± 0.015 kg/m3
same,mass density,"259.63 K, 1548.6 kPa, Gas",27.5129 ± 0.016 kg/m3
same,mass density,"259.63 K, 2097.3 kPa, Liquid",431.21 ± 0.1 kg/m3
same,mass density,"259.63 K, 2412.9 kPa, Liquid",432.441 ± 0.1 kg/m3
same,mass density,"259.63 K, 3076.2 kPa, Liquid",434.902 ± 0.1 kg/m3
same,mass density,"265.02 K, 505.8 kPa, Gas",7.3166 ± 0.01 kg/m3
same,mass density,"265.06 K, 116.65 kPa, Gas",1.6114 ± 0.0092 kg/m3
same,mass density,"265.06 K, 279.98 kPa, Gas",3.9405 ± 0.0095 kg/m3
same,mass density,"265.06 K, 3532.6 kPa, Liquid",425.483 ± 0.1 kg/m3
same,mass density,"265.07 K, 1811.5 kPa, Gas",32.6652 ± 0.017 kg/m3
same,mass density,"265.07 K, 2278.6 kPa, Liquid",419.942 ± 0.099 kg/m3
same,mass density,"265.07 K, 2962.8 kPa, Liquid",423.046 ± 0.099 kg/m3
same,mass density,"265.08 K, 1404.5 kPa, Gas",23.2391 ± 0.014 kg/m3
same,mass density,"265.08 K, 1612.3 kPa, Gas",27.8016 ± 0.016 kg/m3
same,mass density,"265.08 K, 2073 kPa, Liquid",418.96 ± 0.099 kg/m3
same,mass density,"265.08 K, 2322.7 kPa, Liquid",420.14 ± 0.099 kg/m3
same,mass density,"265.08 K, 2963.1 kPa, Liquid",423.044 ± 0.099 kg/m3
same,mass density,"265.08 K, 3081.3 kPa, Liquid",423.536 ± 0.099 kg/m3
same,mass density,"265.08 K, 3090.5 kPa, Liquid",423.579 ± 0.099 kg/m3
same,mass density,"265.09 K, 2565.3 kPa, Liquid",421.145 ± 0.099 kg/m3
same,mass density,"265.09 K, 3539.3 kPa, Liquid",425.459 ± 0.1 kg/m3
same,mass density,"265.1 K, 816.83 kPa, Gas",12.3046 ± 0.011 kg/m3
same,mass density,"265.1 K, 1004.4 kPa, Gas",15.548 ± 0.012 kg/m3
same,mass density,"265.1 K, 1199.4 kPa, Gas",19.1462 ± 0.013 kg/m3
same,mass density,"265.1 K, 2730.8 kPa, Liquid",421.962 ± 0.099 kg/m3
